According to publication PMC11143257, “Atomistic mechanism of coupling between cytosolic sensor domain and selectivity filter in TREK K2P channels” (Nature Communications, 2024):
Substitutions are numbered along the chain they refer to.

Columns and labels:
WT hTREK-2 = assay: Direct application of PKC inhibitor, oocytes; assay type: cell-based, human; settings: oocytes expressing WT hTREK-2
Text: This study by Türkaydin and colleagues combines functional studies of TREK channels with MD simulations and proposes an explanation for the molecular mechanism of phosphorylation-mediated regulation of channel activity, and a general framework for how down-to-up transitions of TM4 is coupled to activation of the SF gate. Using elegant MTS-modification, phospho-mimetic mutagenesis, and norfluoxetine sensitivity experiment - and […]
TM4 increases channel opening which is a plausible explanation for the inverse inhibitory effect of phosphorylation of the extended M4 helix.
The molecular dynamics approaches are mostly outside of my expertise and so I cannot comment on the technical elements. However, the interaction network analysis supports previous models that upwards movement of TM4 is associated with opening of the SF gate and highlights previously identified and potential novel residues responsible. […]
results provide interesting advances which improve our understanding of TREK channel […]
We thank the reviewer for the positive evaluation of our work and the many helpful comments to improve the manuscript. The reviewer specific comments are addressed below:
- and this is an excellent opportunity to clarify some important outstanding questions in the […]
state. This is an interesting and important finding, which would help to explain TREK channel regulation in vivo. […]

hTREK-1 = assay: Direct application of PKC inhibitor, HEK293 whole-cell; assay type: cell-based, human; settings: 1.0 µM; HEK293 cells, whole-cell configuration; within 30 min; n = 6
Description: Further, we also tested the direct application of 1.0 µM of the PKC inhibitor BIM I to HEK293 cells (in whole-cell configuration) expressing hTREK-1. Similarly, under these conditions, TREK-1 channel currents were not altered within 30 min. (n = 6). Thus, it appears that under […]
of the PKC site. Unfortunately, it is not known which phosphatase mediates the dephosphorylation of the PKC site in TREK channels nor are pharmacological phosphatase activators known that could be used promote the dephosphorylation.
The interaction network analysis provides possible explanations for how TM4 movement is transduced to SF gate opening. As mentioned, this analysis highlights a number of residues […]
W326, R237 in Dong et al., 2015). The authors are well placed to determine whether mutation of these residues, in silico, destabilizes the down-state and to show how this might promote stabilization of the conductive SF. […]
through interaction network analysis and previous mutation studies, can aid in studying the conformational change from down- to up-state in the channel and how this is related to the conformational change in the SF. However, the timescale for the conformational movement in […]
2 channels. In only 3 out of 7 simulations, each lasting 3 μs, did we observe a complete transition from up to down. […]
well-suited for assessing the impact of mutations. […]

TREK-2* = molecular target: T1, TREK-2* (Homo sapiens, UniProt P57789); assay: Activation of truncated construct; assay type: cell-based; set-up: was truncated from WT and includes amino acids 67 - 355; expressed in transfected cells; host or cells: Xenopus laevis oocytes (cRNA injection, pFAW vector); settings: comparable to WT, peer review file
T1 sequence (P57789 67-355 isoform P57789-4): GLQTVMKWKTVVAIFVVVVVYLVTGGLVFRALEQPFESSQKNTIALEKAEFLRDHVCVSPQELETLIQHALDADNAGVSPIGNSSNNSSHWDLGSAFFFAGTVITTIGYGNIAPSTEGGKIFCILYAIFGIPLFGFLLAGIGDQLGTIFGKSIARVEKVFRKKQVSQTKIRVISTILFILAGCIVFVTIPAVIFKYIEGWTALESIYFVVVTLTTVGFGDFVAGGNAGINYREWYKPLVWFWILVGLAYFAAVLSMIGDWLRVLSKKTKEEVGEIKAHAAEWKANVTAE
Text: page 27: Answer: We agree with the reviewer that applying statistical tests to our simulation data would enhance the confidence in interpreting some of the results. However, in this study, due to the relatively large size of the systems that require extensive simulation time, we were limited to conducting only five to seven independent simulation runs for each setup. According to the checklist and recommendations provided by Nature Journal (PMID: 36918708), a minimum of three simulations per condition is advisable. Given that we only have data from these limited simulation runs, conducting a p-test is challenging. Nonetheless, as we noted in the main text, in all 5 simulations of the down-state, we observed a robust conformational change at the S1 binding site. Conversely, in all five up-state simulations, the SF remained a conductive conformation. […] Minor comments: Are there any differences in function between full-length TREK-2 and the TREK-2* construct? […] 22

TREK-1 V322C = molecular target: T2, TREK-1 V322C (Homo sapiens, UniProt O95069, V322C); assay: MTS probe modification, inside-out patch-clamp; assay type: cell-based; settings: MTS-ET+ 1 mM, symmetrical K+, -80 mV (Supplementary Fig. 2d)
T2 construct: expressed in transfected cells; host or cells: Xenopus laevis oocytes (cRNA injection), excised inside-out patches
T2 sequence (O95069 1-426 V322C): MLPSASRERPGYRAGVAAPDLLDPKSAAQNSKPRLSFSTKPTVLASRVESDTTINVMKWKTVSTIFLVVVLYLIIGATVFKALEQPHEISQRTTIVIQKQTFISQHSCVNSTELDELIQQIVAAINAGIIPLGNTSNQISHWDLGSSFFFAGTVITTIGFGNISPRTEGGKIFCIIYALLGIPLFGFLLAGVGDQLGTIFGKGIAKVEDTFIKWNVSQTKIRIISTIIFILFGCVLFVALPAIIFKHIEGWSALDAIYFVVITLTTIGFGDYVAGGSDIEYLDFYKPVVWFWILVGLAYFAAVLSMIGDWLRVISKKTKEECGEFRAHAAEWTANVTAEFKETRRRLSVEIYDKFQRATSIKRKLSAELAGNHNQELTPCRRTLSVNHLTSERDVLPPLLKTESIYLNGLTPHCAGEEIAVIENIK
Description: (§1) First, we measured WT TREK-1, WT TRAAK and TREK-2^* channels without modifiable cysteine residues as references. […] Note, that patch integrity and channel regulation were tested with either 1 mM tetra-pentyl-ammonium (TPenA) and a short pHi activation step. Next, we conducted systematic cysteine scanning mutagenesis of the entire pCt and examined the effect of charged and aliphatic MTS probes.
(§2) Xenopus laevis oocytes were surgically removed from anesthetized adult females, treated with type II collagenase (Sigma-Aldrich/Merck, Germany) and manually defolliculated. A solution containing the K^+ channel-specific cRNA at a desired concentration was injected into Dumont stage V - VI oocytes and subsequently incubated at 17 °C in a solution containing (mM): 54 NaCl, […], 2.4 NaHCO3, 0.82 MgSO4 x 7 H2O, 0.41 CaCl2, 0.33 Ca(NO3)2 x 4 H2O and 7.5 TRIS (pH 7.4 adjusted with NaOH/HCl) for 1 - 7 days before use. Patch-clamp recordings in an inside-out configuration under voltage-clamp conditions were performed at room temperature (22 - 24 °C). Patch pipettes were made from thick-walled borosilicate glass GB 200TF-8P (Science Products, Germany), had resistances of 0.2 - 0.5 MΩ (tip diameter of 10 - 25 µm) and filled with a pipette solution (in mM): 120 KCl, 10 HEPES and 3.6 CaCl2 (pH 7.4 adjusted with KOH/HCl). Intracellular bath solutions and compounds were applied to the cytoplasmic side of excised patches for the various K^+ channels via a gravity flow multi-barrel pipette system. The intracellular solution had the following composition (in mM): 120 KCl, 10 HEPES, 2 EGTA, and 1 Pyrophosphate (pH adjusted with KOH/HCl). Currents were recorded with an EPC10 amplifier (HEKA electronics, Germany) and sampled at 10 kHz or higher and filtered with 3 kHz (-3 dB) or higher as appropriate for the sampling rate.
(§3) Tetra-pentyl-ammonium chloride (TPenA) was purchased from Merck (Sigma-Aldrich), prepared as 100 mM stocks in intracellular recording solution, stored at −20 °C and diluted to a final concentration in intracellular recording solution before measurements. Decyl-MethaneThioSulfonate (Decyl-MTS), (2-(trimethylammonium)ethyl)MethaneThioSulfonate bromide (MTS-ET^+) and Sodium (2-sulfonatoethyl)MethaneThioSulfonate (MTS-ES^-) were purchased from Toronto Research Chemicals. MTS-ET^+ was directly dissolved to the desired concentration of 1 mM in the intracellular recording solution before each experiment. MTS-ET^+ was used immediately after dilution for maximally 5 min. Decyl-MTS and […] were prepared as 10 - 100 mM stocks in DMSO and diluted to the desired concentration before the measurements.
(§4) The fold current increase (fold activation) of a ligand (decyl-MTS) was calculated from the following equation:1 FoldactivationFA=Iactivated/Ibasal with Iactivated represents the stable current level in the presence of 100 µM decyl-MTS and Ibasal the measured current before application of the MTS probe.

TREK-1 T318C = molecular target: T3, TREK-1 T318C (Homo sapiens, UniProt O95069, T318C); assay: MTS probe modification, inside-out patch-clamp; assay type: cell-based; settings: MTS-ET+ 1 mM, symmetrical K+, -80 mV (Supplementary Fig. 2d)
T3 construct: expressed in transfected cells; host or cells: Xenopus laevis oocytes (cRNA injection), excised inside-out patches
T3 sequence (O95069 1-426 T318C): T2 sequence (O95069 1-426 V322C) with T318C, C322V
Description: as §1, §2, §3, §4

TREK-1 F325C = molecular target: T4, TREK-1 F325C (Homo sapiens, UniProt O95069, F325C); assay: MTS probe modification, inside-out patch-clamp; assay type: cell-based; settings: MTS-ET+ 1 mM, symmetrical K+, -80 mV (Supplementary Fig. 2d)
T4 construct: expressed in transfected cells; host or cells: Xenopus laevis oocytes (cRNA injection), excised inside-out patches
T4 sequence (O95069 1-426 F325C): T2 sequence (O95069 1-426 V322C) with C322V, F325C
Description: as §1, §2, §3, §4

CN(C)CCCn1cc(C2=C(c3c[nH]c4ccccc34)C(=O)NC2=O)c2ccccc21 [BIM I, Bisindolylmaleimide I]
effect on current (WT hTREK-2): did not observe a current increase
effect on TREK-1 channel currents (hTREK-1): not altered

CCCCC/C=C\C/C=C\C/C=C\C/C=C\CCCC(=O)O [arachidonic acid]
activation (TREK-2*): activated

(2-(trimethylammonium)ethyl)MethaneThioSulfonate bromide [MTS-ET^+]
effect of charged MTS probe on activity (TREK-1 V322C): channel inhibition
effect of charged MTS probe on activity (TREK-1 T318C): channel inhibition
effect of charged MTS probe on activity (TREK-1 F325C): channel inhibition
